Where no end group is shown, it is not given here. [ ]: non-standard residue; d: D form.
Columns and labels:
[1] = system: 15 proteases in the LUAD protease panel; experiment: in vitro recombinant protease screen of FRET-paired substrates; format: biochemical; settings: fluorescence fold change at 45 minutes; 1 μM substrate, 12.5 nM recombinant enzyme; MP metallo-, SP serine, AP aspartic protease
Source text: Hundreds of peptide sequences have been previously designed and validated as protease substrates, leveraging known catalytic specificities of different protease families, published datasets and substrate sequences in databases like cutDB and MEROPS (Igarashi et al., Nucleic Acids Res 35, D546-549, 2007; Rawlings et al., Nucleic Acids Res 46, D624-D632, 2018). Fourteen of these substrates were nominated in an effort to cover the specificity profiles of metallo-, serine and aspartic endoproteases, all of which were included in the LUAD protease panel, and the catalytic activity of each protease-substrate pair was characterized. Quenched probes that incorporated the 14 peptide substrates were synthesized such that they fluoresce upon proteolytic cleavage to enable real-time monitoring of protease activity in vitro (FIG. 3A and Table 2). Each probe was incubated with each protease in the panel and fluorescence was monitored over 45 minutes. Shown are sample kinetic plots monitoring dequenching of the 14 FRET-paired probes when incubated with (above) and without (below) recombinant matrix metalloproteinase 3 (MMP3) (FIG. 3B). […] See also FIG. 19.
Fluorogenic protease substrates were synthesized by CPC Scientific. Recombinant proteases were purchased from Enzo Life Sciences, R&D Systems and Haematologic Technologies. For recombinant protease assays, fluorogenic substrates PPQ1-14 (1 μM final concentration) were incubated in 30 μL final volume in appropriate enzyme buffer, according to manufacturer specifications, with 12.5 nM recombinant enzyme at 37° C. (FIG. 3). Proteolytic cleavage of substrates was quantified by increases in fluorescence over time by fluorimeter (Tecan Infinite M200 Pro). Enzyme cleavage rates were quantified as relative fluorescence increase over time normalized to fluorescence before addition of protease. Hierarchical clustering was performed in GENE-E, using fluorescence fold changes at 45 minutes.

[2] = system: Kras and p53 mutant lung adenocarcinoma (KP mice); experiment: urinary ABN readout and random forest classification in KP lung adenocarcinoma model; format: in vivo
Description: To characterize ABN performance in vivo, 14 protease-sensitive ABNs were administered to KP mice and healthy, age and sex-matched controls at 5, 7.5 and 10.5 weeks after tumor initiation. Mouse bladders were voided one hour after intrapulmonary delivery and all fresh urine produced during the subsequent hour (from 60-120 minutes after administration) was pooled and collected. LC-MS/MS was performed and peak area ratios (defined as peak area of urinary reporter divided by peak area of spiked-in internal standard) of protease-sensitive reporters were mean-normalized within each sample to reduce mouse-to-mouse variation.
A random forest classifier was then sought to be built to enable prospective diagnosis of lung cancer in KP mice. Random forest is a high-performance classifier, applicable to a wide variety of classification tasks, that generates a collection of decision trees (a “forest”) that are sampled to produce classification results (Breiman, Machine Learning 45, 5-32, 2001). A random forest classifier was trained using 50% of control mice at 5 weeks, 7.5 weeks and 10.5 weeks, as well as 50% of KP mice at 7.5 weeks (FIG. 6A). The classifier assigned a probability that each mouse belonged to either the KP cohort or the healthy control cohort (FIG. 6B, “Training” panel), achieving perfect separation of control and KP mice. The classifier was then sought to be tested on an independent validation cohort consisting of classifier-naive KP mice at 5 weeks, 7.5 weeks and 10.5 weeks post-induction, as well as the remaining control mice from each time point.
Male B6/SV129 Kras^LSL-G12D/+; Trp53^fl/fl (KP) mice between 18 and 30 weeks old were used for lung adenocarcinoma experiments. Tumors were initiated, as described previously (DuPage et al., Nat Protoc 4, 1064-1072 (2009)), by the intratracheal administration of 50 μL of adenovirus-SPC-Cre (2.5×10^8 PFU in Opti-MEM with 10 mM CaCl2)) under isoflurane anesthesia. […] Tumor growth was monitored by micro computed tomography (microCT) imaging (General Electric) and was scored by a blinded radiation oncologist using MicroView (Parallax Innovations) (Table 4). Tumor volumes were calculated by using the ROI sphere/elliptical tool.
ABN constructs (GluFib-Substrate-PEG-840 kDa) for urinary experiments were synthesized by CPC Scientific (Sunnyvale, CA). ABNs were dosed (50 μL total volume, 20 μM concentration per ABN) by intratracheal intubation, as described above. Bladders were voided 60 minutes after ABN administration and all urine produced 60-120 min after ABN administration was collected using custom tubes in which the animals rest upon 96-well plates that capture urine. Urine was pooled and frozen at −80° C. until analysis by LC-MS/MS.
Liquid chromatography/tandem mass spectrometry was performed by Syneos Health (Princeton, NJ) using a Sciex 6500 triple quadrupole instrument. Briefly, urine samples were treated with UV irradiation to photocleave the ANP linker and liberate the Glu-Fib reporter from residual peptide fragments. Samples were extracted by solid-phase extraction and analyzed by multiple reaction monitoring by LC-MS/MS to quantify concentration of each Glu-Fib mass variant. Analyte quantities were normalized to a spiked-in internal standard and concentrations were calculated from a standard curve using peak area ratio (PAR) to the internal standard. Mean normalization was performed on PAR values to account for mouse-to-mouse differences in ABN inhalation efficiency and urine concentration.
Principal component analysis (PCA) was performed on mean normalized PAR values in the R statistical environment (Team, R.C. R, R Foundation for Statistical Computing, Vienna, Austria, 2017) using the prcomp function. Binary classification was performed using the Caret package (Kuhn, M. caret: Classification and Regression Training. (2017)) in the R statistical environment). […]

PA01 supernatant = experiment: cleavage of FRET-paired substrates by bacterial supernatant; format: biochemical, Pseudomonas aeruginosa; settings: added to PA01 supernatant
Description: The specificity of LAS and ELA for P. aeruginosa cleavage was tested by collecting supernatants from PA01 or Staphylococcus aureus cultures and incubating them with FRET-paired substrates LAS-Q and ELA-Q in 384 well plates. […] To investigate whether the LAS and ELA substrates are also susceptible to cleavage by host proteases, each was incubated with recombinant mouse proteases.
Supernatant from PA01 and S. aureus were collected and added to substrates in 384 well plates and dequenching of FAM was monitored at 37° C. (Tecan). Fluorescence change at 30 minutes was reported. For recombinant protease assays, enzyme was added to the substrates in enzyme-specific buffer (MMP7 & 9 buffer: 50 mM Tris, 150 mM NaCl, 5 mM CaCl2), […], pH 7.5; Thrombin: PBS; NE: 100 mM HEPES, 500 mM NaCl, 0.05% Tween 20) in a 384 well plate for time-lapse fluorimetry to measure dequenching at 37° C. (Tecan).

[3] = system: P. aeruginosa strain PA01 lung infection; experiment: histology and immunofluorescence of lung sections after antibiotic treatment; format: in vivo, mice
Description: To test whether inflammation remained after antibiotic therapy, histological and immunofluorescence analysis of lung sections were performed from infected and treated mice. […] The robust diagnostic capability of ELA to identify infection but poor ability to monitor treatment, paired with the robust ability for LAS to specifically monitor treatment highlights the importance of multiplexing and measuring both host and pathogen factors.
Individual responses to antimicrobial treatment can be highly variable, dependent upon the strain of pathogen and the presence of antibiotic resistance, and current clinical tests take 24-72 hours to identify antibiotic susceptibility (Caliendo et al., Clin Infect Dis, 57, S139, 2013). In addition, current clinical tests used to visualize lung infections (e.g., chest X-ray and computed tomography) are often unable to distinguish active infections from those that have been adequately treated until several weeks after antibiotic therapy is complete, because the airspace opacifications characteristic of pneumonia remain apparent on routine radiography screens (Bruns et al., J Gen Intern Med, 25, 203, 2010). Therefore, the ability of the infection-tracking ABNs to identify successful versus insufficient treatment on an acute time-scale shortly after therapeutic initiation was sought to be evaluated. Only 5 hours after establishing lung infections with PA01, antibiotic treatment was initiated with either ciprofloxacin (efficacious against P. aeruginosa) or doxycycline (ineffective against gram-negative bacteria including P. aeruginosa) (FIG. 13A). The following day, multiplexed LAS-E and ELA-E ABNs were administered and urine was collected. […] The persistent Pseudomonas immunostaining observed following ciprofloxacin treatment might be derived from residual Pseudomonas antigens remaining from lysed bacteria that had not yet been cleared by the immune system. Alternatively, the reduced LAS sensor reading in these treated mice could reflect a suppression of LasA secretion from bacteria as they are killed by the potent antibiotic.
All animal studies were approved by Massachusetts Institute of Technology's Committee on Animal Care. For infection studies, 5-7 week old female CD-1 mice were innoculated intratracheally with 1.25×10^6 CFU of P. aeruginosa strain PA01 in 50 μL of PBS. Bacteria were cultured overnight in LB broth, then subcultured and grown to log phase (OD600≈0.5). Bacteria were pelleted, washed with sterile PBS, and then resuspended to the requisite concentration for intratracheal administration. Mice were administered buprenorphine and meloxicam several hours after infection. For antibiotic treatment studies, mice were injected intraperitoneally with 40 mg/kg ciprofloxacin or 30 mg/kg doxycycline twice per day for up to 6 days.
Animals were perfused with PBS followed by 10% formalin solution. The lungs were resected and fixed in formalin before paraffin embedding and sectioning. […] Fluorescence images were acquired on a Perkin Elmer Pannoramic250. Quantification of neutrophil signal was completed by capturing 3-5 representative fields from each stained lung section and counting positive cells. Quantification of pseudomonas signal was completed by capturing 3-5 representative fields from each stained lung section and measuring total positive area after uniform thresholding of each single-channel fluorescence image (ImageJ).

[4] = 24 hours post-infection, after 19 hours of antibiotic therapy

With “PP03: ABN: reporter e(+3G)(+1V)ndneeGFFs(+4A)r, ANP, substrate PVPLSLVM, nanocarrier PEG8-40 kDa (chain 1 [dE]G[+1V][dN][dD][dN][dE][dE]GFF[dS][+4A][dR]; not fully specified (some residues); printed as PP03: ABN: reporter e(+3G)(+1V)ndneeGFFs(+4A)r, ANP, substrate PVPLSLVM, nanocarrier PEG8-40 kDa; also: ANP photolabile linker, PEG8-40 kDa nanocarrier, linkage of reporter, ANP, substrate and carrier not given here)” the “protease class(es) cleaving the substrate in vitro” value [1] was “metalloproteases or both metalloproteases and aspartic proteases”, the “urinary reporter enrichment relative to healthy controls” value ([2]; KP7.5 wk urine) was “enriched” and the “urinary reporter enrichment relative to healthy controls” value ([2]; KP10.5 wk urine) was “enriched”.

For `[Cl-].[Cl-].[Zn+2]` [ZnCl2, reference compound], the “effect on cleavage signal of LAS-Q and ELA-Q” value (PA01 supernatant) was “suppressed the cleavage signal”.

In the case of `O=C(O)c1cn(C2CC2)c2cc(N3CCNCC3)c(F)cc2c1=O` [ciprofloxacin], the “decrease of Pseudomonas immunofluorescent signal compared to the doxycycline-treated group” value [3, 4] is reported as ~60%, the “lung inflammation and neutrophils” value [3, 4] is reported as “marked lung inflammation and elevated neutrophils” and the “Pseudomonas immunofluorescence signal in lungs of infected mice relative to uninfected or ciprofloxacin-treated mice” value ([3]; 4 day course of ciprofloxacin, 40 mg/kg intraperitoneally twice per day) is reported as 7-9 fold. The “Pseudomonas in lung sections after treatment” value ([3]; histology and immunofluorescent staining after ciprofloxacin course) was “no Pseudomonas” and the “decrease in neutrophil count in lungs after antibiotic treatment” value ([3]; relative to infected mice) was ~30%.

In the case of “PP09: ABN: reporter eGVndneeGF(+10F)s(+4A)r, ANP, substrate KPISLISSG, nanocarrier PEG8-40 kDa (chain 1 [dE]GV[dN][dD][dN][dE][dE]GF[+10F][dS][+4A][dR]; also: ANP photolabile linker, PEG8-40 kDa nanocarrier, linkage of reporter, ANP, substrate and carrier not given here)”, the “protease class(es) cleaving the substrate in vitro” value [1] is reported as “metalloproteases or both metalloproteases and aspartic proteases”, the “urinary reporter enrichment relative to healthy controls” value ([2]; KP7.5 wk urine) is reported as “enriched” and the “urinary reporter enrichment relative to healthy controls” value ([2]; KP10.5 wk urine) is reported as “enriched”.

For “PP02: ABN: reporter eG(+6V)ndneeGF(+1F)s(+1A)r, ANP, substrate PVGLIG, nanocarrier PEG8-40 kDa (chain 1 EGVNDNEEGFFSAR; not fully specified (some residues); printed as PP02: ABN: reporter eG(+6V)ndneeGF(+1F)s(+1A)r, ANP, substrate PVGLIG, nanocarrier PEG8-40 kDa)”, the “protease class(es) cleaving the substrate in vitro” value [1] was “metalloproteases or both metalloproteases and aspartic proteases”, the “urinary reporter enrichment relative to healthy controls” value ([2]; KP7.5 wk urine) was “enriched” and the “urinary reporter enrichment relative to healthy controls” value ([2]; KP10.5 wk urine) was “enriched”.

From patent US12173349B2, “Lung protease nanosensors and uses thereof” (Massachusetts Institute of Technology, priority 2018, dated 2024)
